This passage reports IC50 results from US9783527B2, “Indazole ureas and method of use” (AbbVie Inc., priority 2014, dated 2017).

Each structure is given as a SMILES string.

Sequence of human Nav1.7 (Q15858 whole entry): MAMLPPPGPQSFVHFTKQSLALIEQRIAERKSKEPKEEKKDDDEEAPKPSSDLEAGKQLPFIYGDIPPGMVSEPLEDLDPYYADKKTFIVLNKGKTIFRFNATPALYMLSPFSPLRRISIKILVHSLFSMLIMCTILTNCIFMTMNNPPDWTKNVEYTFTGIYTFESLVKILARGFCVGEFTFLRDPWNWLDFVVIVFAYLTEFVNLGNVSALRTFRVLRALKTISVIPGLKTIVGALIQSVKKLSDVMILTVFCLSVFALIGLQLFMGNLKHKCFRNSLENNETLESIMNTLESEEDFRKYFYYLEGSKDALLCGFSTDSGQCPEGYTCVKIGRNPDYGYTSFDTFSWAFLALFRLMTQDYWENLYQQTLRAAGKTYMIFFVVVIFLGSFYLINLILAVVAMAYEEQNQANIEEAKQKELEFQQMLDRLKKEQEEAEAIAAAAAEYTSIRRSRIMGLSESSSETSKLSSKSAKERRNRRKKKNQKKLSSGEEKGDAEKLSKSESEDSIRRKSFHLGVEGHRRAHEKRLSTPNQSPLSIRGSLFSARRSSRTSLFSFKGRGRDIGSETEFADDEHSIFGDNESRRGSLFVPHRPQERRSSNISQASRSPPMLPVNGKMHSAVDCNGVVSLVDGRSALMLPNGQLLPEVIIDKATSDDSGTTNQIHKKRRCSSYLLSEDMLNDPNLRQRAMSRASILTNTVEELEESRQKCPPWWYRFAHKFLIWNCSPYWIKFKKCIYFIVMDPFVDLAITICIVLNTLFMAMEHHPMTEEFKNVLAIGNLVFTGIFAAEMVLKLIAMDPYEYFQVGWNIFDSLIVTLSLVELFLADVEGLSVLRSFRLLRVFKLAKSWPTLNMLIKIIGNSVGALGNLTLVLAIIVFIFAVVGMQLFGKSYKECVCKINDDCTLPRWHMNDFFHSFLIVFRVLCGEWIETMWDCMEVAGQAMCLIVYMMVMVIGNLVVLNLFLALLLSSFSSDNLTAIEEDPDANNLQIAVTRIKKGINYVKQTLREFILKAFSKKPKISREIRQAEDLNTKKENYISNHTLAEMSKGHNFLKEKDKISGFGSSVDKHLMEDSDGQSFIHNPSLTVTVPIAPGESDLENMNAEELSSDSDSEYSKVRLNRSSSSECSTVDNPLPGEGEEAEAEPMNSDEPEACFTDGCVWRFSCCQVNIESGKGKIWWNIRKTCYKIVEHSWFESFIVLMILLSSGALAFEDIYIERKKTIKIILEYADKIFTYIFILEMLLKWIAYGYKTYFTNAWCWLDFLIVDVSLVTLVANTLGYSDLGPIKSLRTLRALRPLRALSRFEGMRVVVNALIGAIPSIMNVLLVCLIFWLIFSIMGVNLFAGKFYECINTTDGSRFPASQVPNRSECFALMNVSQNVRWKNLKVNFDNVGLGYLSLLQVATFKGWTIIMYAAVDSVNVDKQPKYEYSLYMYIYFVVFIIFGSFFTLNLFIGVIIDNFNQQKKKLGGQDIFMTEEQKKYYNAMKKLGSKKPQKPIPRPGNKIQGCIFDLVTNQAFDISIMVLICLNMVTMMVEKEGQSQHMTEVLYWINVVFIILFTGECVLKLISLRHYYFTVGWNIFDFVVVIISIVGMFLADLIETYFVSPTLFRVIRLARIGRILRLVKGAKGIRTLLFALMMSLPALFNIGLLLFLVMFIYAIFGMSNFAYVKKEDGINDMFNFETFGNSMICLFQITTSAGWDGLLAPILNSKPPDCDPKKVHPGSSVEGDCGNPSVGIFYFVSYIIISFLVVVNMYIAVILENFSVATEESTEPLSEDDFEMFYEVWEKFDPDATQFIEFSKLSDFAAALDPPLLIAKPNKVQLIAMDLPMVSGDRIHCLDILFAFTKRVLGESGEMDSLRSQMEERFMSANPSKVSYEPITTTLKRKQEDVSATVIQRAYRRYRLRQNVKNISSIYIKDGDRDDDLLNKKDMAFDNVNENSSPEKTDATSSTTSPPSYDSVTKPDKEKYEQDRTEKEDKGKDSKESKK

The target of the assay is human Nav1.7 (Homo sapiens (Human), UniProt Q15858). The assay can be described thus: FRET-based membrane potential assay, recombinant human sodium channel Nav1.7. Format: cell-based. The settings on record: HEK293 cells stably expressing recombinant human Nav1.7; depolarization with veratridine (EC80) + scorpion venom. The procedure:
FRET-Based Membrane Potential Assays.
Recombinant, Human Sodium Channel, Nav1.7.
Two days prior to the experiment, frozen HEK293 cells stably expressing recombinant human Nav1.7 were quickly thawed and plated at 25,000 cells/well in growth medium [DMEM (Invitrogen #11965) with 10% HI FBS (Invitrogen #10082), 2 mM glutamine, 100 units/mL penicillin, 0.1 mg/mL streptomycin (PSG, Sigma #G1146), and 500 μg/mL Geneticin (Invitrogen #10131)] in black-walled, clear-bottom 384-well poly-D-lysine-coated assay plates (Greiner Bio-One, Frickenhausen, Germany) and incubated in a humidified 5% CO2 incubator at 37° C. On the day of the assay, medium was removed by aspiration, and cells were washed with assay buffer [HBSS (Invitrogen, Carlsbad, Calif.) containing 20 mM HEPES (Invitrogen, Carlsbad, Calif.)]. After washing, 30 μL assay buffer containing the fluorescent voltage-sensor probe CC2-DMPE (Invitrogen, Carlsbad, Calif.) at 20 μM and 0.01% pluronic F-127 (Invitrogen, Carlsbad, Calif.) was added to the cells. Cells were incubated for 40 minutes at room temperature in the dark. Following the incubation, the cells were washed and 30 μL assay buffer containing 2.5 μM DiSBAC2(3) substrate (Invitrogen, Carlsbad, Calif.) and 0.5 mM VABSC-1 (Invitrogen, Carlsbad, Calif.) was added to the cells. The cells were incubated for 90 minutes at room temperature in the dark. Fluorescence readings were made using a FLIPR®^TETRA (Molecular Devices, Sunnyvale Calif.) equipped with voltage-sensor probe optics. At the start of each experiment the optimal (EC80) concentration of depolarizing agent (veratridine) was determined by testing a dilution curve of assay buffer containing veratridine (Sigma-Aldrich, St. Louis, Mo.) and 1 mg/mL scorpion venom (SVqq, from Leiurus quinquestriatus; Sigma-Aldrich, St. Louis, Mo.). […] Test compounds in the daughter plate were diluted to (˜3×) solutions in assay buffer immediately before assaying. Using the FLIPR®^TETRA, 20 μL of the (3×) compound solutions were first added to the cells, then 20 μL of depolarizing solution (3×EC80 veratridine+SVqq) were added 3 minutes later to activate the channel. Changes in fluorescence were measured at wavelengths of 440-480 nm and 565-625 nm over the course of the experimental run. Membrane depolarization was expressed as a ratio of the maximum F440-480 nm/F565-625 nm reading above average baseline F440-480 nm/F565-625 nm reading. IC50 values were calculated from curve fits of the ratio data using a four-parameter logistic Hill equation (Accelrys Assay Explorer 3.3 Client, Accelrys, San Diego, Calif.) with percent inhibition plotted against compound concentration.
The term IC50 denotes the point on the concentration scale where inhibition reaches its midpoint. On to `O=C1N(CC(=O)N2C[C@@H](O)C[C@@H]2c2cc(F)ccc2F)CCN1c1cccc2c1cnn2-c1ccccc1F` [Example 122, 1-{2-[(2R,4S)-2-(2,5-difluorophenyl)-4-hydroxypyrrolidin-1-yl]-2-oxoethyl}-3-[1-(2-fluorophenyl)-1H-indazol-4-yl]imidazolidin-2-one], for which the IC50 stood at 2.3 µM.
Then `CC(C)CC(O)CN1CCN(c2cccc3c2cnn3-c2ccccc2F)C1=O` (stereo not drawn) [Example 123, 1-[1-(2-fluorophenyl)-1H-indazol-4-yl]-3-(2-hydroxy-4-methylpentyl)imidazolidin-2-one], with 0.346 µM; and `CC(C)[C@H]1CCCCN1C(=O)CN1CCN(c2cccc3c2cnn3-c2ccccc2F)C1=O` [Example 124, 1-[1-(2-fluorophenyl)-1H-indazol-4-yl]-3-{2-[(2R)-2-isopropylpiperidin-1-yl]-2-oxoethyl}imidazolidin-2-one], with 1.2 µM; and `CC(C)[C@@H]1CCCN1C(=O)CN1CCN(c2cccc3c2cnn3-c2ccccc2F)C1=O` [Example 125, 1-[1-(2-fluorophenyl)-1H-indazol-4-yl]-3-{2-[(2S)-2-isopropylpyrrolidin-1-yl]-2-oxoethyl}imidazolidin-2-one], with 1.41 µM.
Then `CC(C)[C@H]1CCCN1C(=O)CN1CCN(c2cccc3c2cnn3-c2ccccc2F)C1=O` [Example 126, 1-[1-(2-fluorophenyl)-1H-indazol-4-yl]-3-{2-[(2R)-2-isopropylpyrrolidin-1-yl]-2-oxoethyl}imidazolidin-2-one], with 0.343 µM.
Turning to `O=C1N(CC(=O)N2C[C@H](F)C[C@@H]2c2cc(F)ccc2F)CCN1c1cccc2c1cnn2-c1ccccc1F` [Example 127, 1-{2-[(2R,4R)-2-(2,5-difluorophenyl)-4-fluoropyrrolidin-1-yl]-2-oxoethyl}-3-[1-(2-fluorophenyl)-1H-indazol-4-yl]imidazolidin-2-one], the half-inhibitory concentration (IC50) came to 1.56 µM.
Turning to `O=C1N(CC(=O)N2CCC[C@@H]2c2ccccc2)CCN1c1cccc2c1cnn2-c1ccccc1F` [Example 128, 1-[1-(2-fluorophenyl)-1H-indazol-4-yl]-3-{2-oxo-2-[(2R)-2-phenylpyrrolidin-1-yl]ethyl}imidazolidin-2-one], the IC50 was 0.746 µM.
To `O=C1N(CC(=O)N2CCCC2c2ccccc2)CCN1c1cccc2c1cnn2-c1ccccc1F` (stereo not drawn) [Example 129, 1-[1-(2-fluorophenyl)-1H-indazol-4-yl]-3-[2-oxo-2-(2-phenylpyrrolidin-1-yl)ethyl]imidazolidin-2-one] belongs 0.403 µM; to `O=C1N(c2ccccn2)CCN1c1cccc2c1cnn2-c1ccccc1F` [Example 130, 1-[1-(2-fluorophenyl)-1H-indazol-4-yl]-3-(pyridin-2-yl)imidazolidin-2-one], 1.85 µM; to `O=C(OC1CCCCC1)N1CCN(c2cccc3c2cnn3-c2ccccc2F)C1=O` [Example 131, cyclohexyl 3-[1-(2-fluorophenyl)-1H-indazol-4-yl]-2-oxoimidazolidine-1-carboxylate], 0.286 µM.
As to `CC(C)CCCC(=O)CN1CCN(c2cccc3c2cnn3-c2ccccc2F)C1=O` [Example 132, 1-[1-(2-fluorophenyl)-1H-indazol-4-yl]-3-(6-methyl-2-oxoheptyl)imidazolidin-2-one], the IC50 stood at 0.713 µM.
As for `CC(C)CCCC(O)CN1CCN(c2cccc3c2cnn3-c2ccccc2F)C1=O` (stereo not drawn) [Example 133, 1-[1-(2-fluorophenyl)-1H-indazol-4-yl]-3-(2-hydroxy-6-methylheptyl)imidazolidin-2-one], the IC50 amounted to 0.525 µM.
To `O=C(CC1CCCC1)CN1CCN(c2cccc3c2cnn3-c2ccccc2F)C1=O` [Example 134, 1-(3-cyclopentyl-2-oxopropyl)-3-[1-(2-fluorophenyl)-1H-indazol-4-yl]imidazolidin-2-one] belongs 1.26 µM.
Then `O=C1N(CC(O)CC2CCCC2)CCN1c1cccc2c1cnn2-c1ccccc1F` (stereo not drawn) [Example 135, 1-(3-cyclopentyl-2-hydroxypropyl)-3-[1-(2-fluorophenyl)-1H-indazol-4-yl]imidazolidin-2-one], with 0.904 µM; and `O=C(CC1CCCCC1)CN1CCN(c2cccc3c2cnn3-c2ccccc2F)C1=O` [Example 136, 1-(3-cyclohexyl-2-oxopropyl)-3-[1-(2-fluorophenyl)-1H-indazol-4-yl]imidazolidin-2-one], with 0.928 µM.
To `O=C(OC1CCCC1)N1CCN2C(=O)N(c3cccc4c3cnn4-c3ccccc3F)CC2C1` (stereo not drawn) [Example 137, cyclopentyl 2-[1-(2-fluorophenyl)-1H-indazol-4-yl]-3-oxohexahydroimidazo[1,5-a]pyrazine-7(1H)-carboxylate] belongs 2.3 µM.
Consider `O=C1N(c2cncnc2)CCN1c1cccc2c1cnn2-c1ccccc1F` [Example 138, 1-[1-(2-fluorophenyl)-1H-indazol-4-yl]-3-(pyrimidin-5-yl)imidazolidin-2-one], for which the IC50 stood at 3.31 µM.
To `O=C1N(CC(O)CC2CCCCC2)CCN1c1cccc2c1cnn2-c1ccccc1F` (stereo not drawn) [Example 139, 1-(3-cyclohexyl-2-hydroxypropyl)-3-[1-(2-fluorophenyl)-1H-indazol-4-yl]imidazolidin-2-one] belongs 2.41 µM; to `O=C(CC1CCC1)CN1CCN(c2cccc3c2cnn3-c2ccccc2F)C1=O` [Example 140, 1-(3-cyclobutyl-2-oxopropyl)-3-[1-(2-fluorophenyl)-1H-indazol-4-yl]imidazolidin-2-one], 0.878 µM.
Then `O=C1N(CC(O)CC2CCC2)CCN1c1cccc2c1cnn2-c1ccccc1F` (stereo not drawn) [Example 141, 1-(3-cyclobutyl-2-hydroxypropyl)-3-[1-(2-fluorophenyl)-1H-indazol-4-yl]imidazolidin-2-one], with 1.16 µM; and `O=C(CC1CC2CCC1C2)CN1CCN(c2cccc3c2cnn3-c2ccccc2F)C1=O` (stereo not drawn) [Example 142, 1-[3-(bicyclo[2.2.1]hept-2-yl)-2-oxopropyl]-3-[1-(2-fluorophenyl)-1H-indazol-4-yl]imidazolidin-2-one], with 2 µM.
Then `O=C(CN1CCN(c2cccc3c2cnn3-c2ccccc2F)C1=O)c1ccccc1` [Example 143, 1-[1-(2-fluorophenyl)-1H-indazol-4-yl]-3-(2-oxo-2-phenylethyl)imidazolidin-2-one], with 0.874 µM; and `O=C(CN1CCN(c2cccc3c2cnn3-c2ccccc2F)C1=O)C1CCCC1` [Example 144, 1-(2-cyclopentyl-2-oxoethyl)-3-[1-(2-fluorophenyl)-1H-indazol-4-yl]imidazolidin-2-one], with 2.1 µM; and `CC(=O)CN1CCN(c2cccc3c2cnn3-c2ccccc2F)C1=O` [Example 145, 1-[1-(2-fluorophenyl)-1H-indazol-4-yl]-3-(2-oxopropyl)imidazolidin-2-one], with 6.23 µM.
As to `C=CCCC(C)(O)CN1CCN(c2cccc3c2cnn3-c2ccccc2F)C1=O` (stereo not drawn) [Example 146, 1-[1-(2-fluorophenyl)-1H-indazol-4-yl]-3-(2-hydroxy-2-methylhex-5-en-1-yl)imidazolidin-2-one], the IC50 was found to be 3.12 µM.
Then `O=C(CN1CCN(c2cccc3c2cnn3-c2ccccc2F)C1=O)c1ccc(F)nc1` [Example 147, 1-[1-(2-fluorophenyl)-1H-indazol-4-yl]-3-[2-(6-fluoropyridin-3-yl)-2-oxoethyl]imidazolidin-2-one], with 1.05 µM; and `CCC(O)(CC(C)C)CN1CCN(c2cccc3c2cnn3-c2ccccc2F)C1=O` (stereo not drawn) [Example 148, 1-(2-ethyl-2-hydroxy-4-methylpentyl)-3-[1-(2-fluorophenyl)-1H-indazol-4-yl]imidazolidin-2-one], with 2.28 µM.
Then `COc1cccc(C(=O)CN2CCN(c3cccc4c3cnn4-c3ccccc3F)C2=O)c1` [Example 149, 1-[1-(2-fluorophenyl)-1H-indazol-4-yl]-3-[2-(3-methoxyphenyl)-2-oxoethyl]imidazolidin-2-one], with 2.97 µM.
To `O=C(CN1CCN(c2cccc3c2cnn3-c2ccccc2F)C1=O)c1cccc(F)c1` [Example 150, 1-[1-(2-fluorophenyl)-1H-indazol-4-yl]-3-[2-(3-fluorophenyl)-2-oxoethyl]imidazolidin-2-one] belongs 3.16 µM.
As for `O=C(CN1CCN(c2cccc3c2cnn3-c2ccccc2F)C1=O)c1ccc(C(F)(F)F)cc1` [Example 151, 1-[1-(2-fluorophenyl)-1H-indazol-4-yl]-3-{2-oxo-2-[4-(trifluoromethyl)phenyl]ethyl}imidazolidin-2-one], the IC50 amounted to 20 µM.
